Results from US4719217A, “Certain N-azabicycloalkyl-benzamides useful in the treatment of impaired gastro-intestinal motility or emesis” (Beecham Group p.l.c., priority 1985, dated 1988).

Tests used:
[1] = tested on: Intraluminal pressure in the Heidenhain pouch; experiment: Intraluminal pressure in the Heidenhain pouch of the dog (increase in amplitude of rhythmical contractions); format: in vivo; conditions: Canis lupus familiaris, iv, fasted lightly restrained conscious, increase in amplitude of rhythmical contractions for at least 4-5 minutes
Description: 2. Intraluminal pressure in the Heidenhain pouch of the dog
Pressure changes were recorded via a saline filled catheter inserted, with airtight closure, into the fistula of a chronic Heidenhain pouch of the previously fasted and lightly restrained conscious dog. The catheter was connected to a physiological pressure transducer and pressure changes recorded on a hot wire pen recorder. Compounds were administered when the motility was in a phase of relatively low activity and the dose range determined which induced an increase in the amplitude of rhythmical contractions for a period of at least 4-5 minutes.

Intragastric pressure = Intragastric pressure in the rat (gastric motility, fasted conscious restrained rats); format: in vivo; conditions: sc, 40 min, s.c., intragastric pressure waves, 40 minute period following dosing
Description: 1. Intragastric pressure in the rat
Intragastric pressure changes were recorded from fasted conscious and restrained rats using a saline filled catheter inserted into the lumen of the stomach via a permanent gastric fistula. The catheter was connected to a physiological pressure transducer and pressure changes recorded on a hot wire pen recorder. An index of activity was obtained by measuring the average height of pressure waves during 10 minute periods. Values for 4 such periods were obtained during assessment of spontaneous activity prior to dosing and for the 40 minute period following dosing with compound or vehicle. The Student's "t" test was applied to the mean values obtained for activity prior to and post treatment. Groups of 10 animals were used for each treatment.

COc1cc(N)c(Cl)cc1C(=O)NC1C2CCC1CN(C)C2 (racemic) [Example E1, (±) (8β)-4-Amino-5-chloro-2-methoxy-N-(3-methyl-3-azabicyclo[3,2,1]octan-8-yl)benzamide]
ED50 [1]: 0.05 mg/kg

COc1cc(N)c(Cl)cc1C(=O)NC1C2CCC1CN(C)C2 (racemic) [Example E2, (±) (8α)-4-Amino-5-chloro-2-methoxy-N-(3-methyl-3azabicyclo[3,2,1]octan-8-yl)benzamide]
ED50 (Intragastric pressure): 0.5 mg/kg

CCN1CC2CCC(C1)C2NC(=O)c1cc(Cl)c(N)cc1OC (racemic) [Example E5, (±)(8β)-4-Amino-5-chloro-2-methoxy-N-(3-ethyl-3-azabicyclo[3,2,1]octan-8-yl)benzamide]
ED50 [1]: 0.01 mg/kg
